Assay results from ChEMBL document CHEMBL5154900, “Design and Synthesis of Dual EZH2/BRD4 Inhibitors to Target Solid Tumors” (J Med Chem, 2022).
The source made the active and inactive calls. The rule behind the calls is not given here.

Assays:
[1] = system: HCT-116; test: Induction of apoptosis in human HCT116 cells assessed as early apoptotic cells at 20 uM measured after 72 hrs by flow cytometry (reference value: 2.8 %); assay type: functional
[2] = system: HCT-116; test: Antiproliferative activity against human HCT-116 cells assessed as inhibition of cell proliferation at 1 uM incubated for 4 days by cell counter method; assay type: functional, cell-based; details: time 4.0 day
[3] = system: ASPC1; test: Antitumor activity against human ASPC1 cells assessed as inhibition of colony formation measured after 12 to 20 days by crystal violet staining based analysis; assay type: functional, cell-based; details: dose <= 0.1 µM, time 12-20 day, DDE = dose-dependent effect
[4] = system: HCT-116; test: Antitumor activity against human HCT-116 cells assessed as inhibition of colony formation measured after 12 to 20 days by crystal violet staining based analysis; assay type: functional, cell-based; details: dose <= 0.4 µM, time 12-20 day, DDE = dose-dependent effect
[5] = system: A549; test: Antitumor activity against human A549 cells assessed as inhibition of colony formation measured after 12 to 20 days by crystal violet staining based analysis; assay type: functional, cell-based; details: dose <= 0.4 µM, time 12-20 day, DDE = dose-dependent effect
[6] = target: T1, Histone-lysine N-methyltransferase EZH2 (Homo sapiens, UniProt Q15910); test: Inhibition of EZH2 in human ASPC1 cells assessed as decrease in H3K27me3 level at 0.05 uM incubated for 72 hrs by Western blot analysis; assay type: cell-based
[7] = target: T1, Histone-lysine N-methyltransferase EZH2; test: Inhibition of EZH2 in human HCT-116 cells assessed as decrease in H3K27me3 level at 0.05 uM incubated for 72 hrs by Western blot analysis; assay type: cell-based
[8] = target: T1, Histone-lysine N-methyltransferase EZH2; test: Inhibition of EZH2 in human A549 cells assessed as decrease in H3K27me3 level at 0.05 uM incubated for 72 hrs by Western blot analysis; assay type: cell-based
[9] = target: T2, Bromodomain-containing protein 4 (Homo sapiens, UniProt O60885); test: Inhibition of BRD4 in human A549 cells assessed as increase in p21 levels incubated for 72 hrs by Western blot analysis; assay type: cell-based; details: dose <= 2.5 µM, DDE = dose-dependent effect
[10] = system: ASPC1; test: Induction of cell cycle arrest in 24 hr starved human ASPC1 cells assessed as accumulation at G0/G1 phase at 1 uM measured after 48 hrs by PI staining based flow cytometric analysis; assay type: functional
[11] = system: HCT-116; test: Induction of apoptosis in human HCT116 cells assessed as early apoptotic cells at 10 uM measured after 72 hrs by flow cytometry (reference value: 2.8 %); assay type: functional
[12] = system: ASPC1; test: Induction of apoptosis in human ASPC-1 cells assessed as downregulation of Bcl-xl protein at 1 uM inubated for 72 hrs by Western blot analysis; assay type: functional, cell-based
[13] = system: HCT-116; test: Induction of apoptosis in human HCT116 cells assessed as downregulation of Bcl-2 protein at 1 uM inubated for 72 hrs by Western blot analysis; assay type: functional, cell-based
[14] = system: HCT-116; test: Induction of apoptosis in human HCT116 cells assessed as downregulation of Bcl-xl protein at 1 uM inubated for 72 hrs by Western blot analysis; assay type: functional, cell-based
[15] = system: HCT-116; test: Induction of apoptosis in human HCT116 cells assessed as upregulation of p21 protein at 1 uM inubated for 72 hrs by Western blot analysis; assay type: functional, cell-based
[16] = system: A549; test: Induction of apoptosis in human A549 cells assessed as downregulation of Bcl-2 protein at 1 uM inubated for 72 hrs by Western blot analysis; assay type: functional, cell-based
[17] = Half life in 12 hr fasted BALB/c mouse at 80 mg/kg, ip measured for 0.083 to 24 hrs by UPLC-MS/MS analysis; assay type: ADME, organism-based; details: in vivo, time 0.083-24 hrs
[18] = Cmax in 12 hr fasted BALB/c mouse at 80 mg/kg, ip measured for 0.083 to 24 hrs by UPLC-MS/MS analysis; assay type: ADME, organism-based; set-up: dose 80 mg/kg, time upper 24 hrs, time lower 0.083 hrs, route ip; details: in vivo
[19] = Half life in 12 hr fasted BALB/c mouse at 80 mg/kg, po measured for 0.083 to 24 hrs by UPLC-MS/MS analysis; assay type: ADME, organism-based; details: in vivo, time 0.083-24 hrs
[20] = AUC in 12 hr fasted BALB/c mouse at 80 mg/kg, po measured for 0.083 to 24 hrs by UPLC-MS/MS analysis; assay type: ADME, organism-based; set-up: time upper 24 hrs, dose 80 mg/kg, time lower 0.083 hrs, route po; details: in vivo
[21] = Bioavailability in 12 hr fasted BALB/c mouse at 80 mg/kg, po measured for 0.083 to 24 hrs by UPLC-MS/MS analysis; assay type: ADME, organism-based; details: in vivo, time 0.083-24 hrs
[22] = system: ASPC1; test: Antiproliferative activity against human ASPC1 cells assessed as cell growth inhibition incubated for 6 days by MTS assay; assay type: functional, cell-based; details: ASPC1, 144 h, read-out: IC50
[23] = target: T2, Bromodomain-containing protein 4; test: Displacement of fluorescein-labeled JQ1 from His6/TEV cleavage site fused human BRD4 (residues N44 to E168) expressed in Escherichia coli BL21 (DE3) incubated for 60 min by Fluorescence polarization assay
[24] = system: HCT-116; test: Effect on ADRB2 mRNA levels in human HCT-116 cells at 5 uM incubated for 48 hrs by RT-qPCR analysis; assay type: functional, cell-based
[25] = system: A549; test: Effect on ADRB2 mRNA levels in human A549 cells at 5 uM incubated for 48 hrs by RT-qPCR analysis; assay type: functional, cell-based
[26] = system: ASPC1; test: Effect on TXINP mRNA levels in human ASPC1 cells at 5 uM incubated for 48 hrs by RT-qPCR analysis; assay type: functional, cell-based
[27] = system: A549; test: Effect on TXINP mRNA levels in human A549 cells at 5 uM incubated for 48 hrs by RT-qPCR analysis; assay type: functional, cell-based
[28] = system: ASPC1; test: Effect on TNFRSF21 mRNA levels in human ASPC1 cells at 5 uM incubated for 48 hrs by RT-qPCR analysis; assay type: functional, cell-based
[29] = system: HCT-116; test: Effect on TNFRSF21 mRNA levels in human HCT-116 cells at 5 uM incubated for 48 hrs by RT-qPCR analysis; assay type: functional, cell-based
[30] = system: A549; test: Effect on TNFRSF21 mRNA levels in human A549 cells at 5 uM incubated for 48 hrs by RT-qPCR analysis; assay type: functional, cell-based
[31] = system: A549; test: Effect on TRHDE mRNA levels in human A549 cells at 5 uM incubated for 48 hrs by RT-qPCR analysis; assay type: functional, cell-based
[32] = system: HCT-116; test: Induction of cell cycle arrest in 24 hr starved human HCT-116 cells assessed as accumulation at G0/G1 phase at 1 uM measured after 48 hrs by PI staining based flow cytometric analysis; assay type: functional
[33] = system: ASPC1; test: Antitumor activity against human ASPC1 cells xenografted in BALB/c mouse assessed as tumor growth inhibition at 80 mg/kg, ip administered 3 times weekly for 28 days and measured every 3 days relative to control; assay type: functional; set-up: scale not given: the % may be the effect or the level left; details: time 28 day
[34] = system: A549; test: Antitumor activity against human A549 cells xenografted in BALB/c mouse assessed as tumor growth inhibition at 80 mg/kg, ip administered 3 times weekly for 40 days and measured every 3 days relative to control; assay type: functional; set-up: scale not given: the % may be the effect or the level left; details: time 40 day
[35] = system: A549; test: Antitumor activity against human A549 cells xenografted in BALB/c mouse assessed as reduction in tumor weight at 60 mg/kg, ip administered 6 times weekly for 38 days relative to control; assay type: functional; set-up: scale not given: the % may be the effect or the level left; details: time 38 day
[36] = Toxicity in BALB/c mouse xenografted with human A549 cells assessed as body weight loss at 60 mg/kg, ip administered 6 times weekly for 38 days; assay type: organism-based; details: in vivo, 912 h, time 38 day
[37] = Toxicity in BALB/c mouse xenografted with human A549 cells assessed as adverse effects at 60 mg/kg, ip administered 6 times weekly for 38 days; assay type: organism-based; details: in vivo, 912 h, time 38 day

T1 sequence (Q15910 whole entry, looked up): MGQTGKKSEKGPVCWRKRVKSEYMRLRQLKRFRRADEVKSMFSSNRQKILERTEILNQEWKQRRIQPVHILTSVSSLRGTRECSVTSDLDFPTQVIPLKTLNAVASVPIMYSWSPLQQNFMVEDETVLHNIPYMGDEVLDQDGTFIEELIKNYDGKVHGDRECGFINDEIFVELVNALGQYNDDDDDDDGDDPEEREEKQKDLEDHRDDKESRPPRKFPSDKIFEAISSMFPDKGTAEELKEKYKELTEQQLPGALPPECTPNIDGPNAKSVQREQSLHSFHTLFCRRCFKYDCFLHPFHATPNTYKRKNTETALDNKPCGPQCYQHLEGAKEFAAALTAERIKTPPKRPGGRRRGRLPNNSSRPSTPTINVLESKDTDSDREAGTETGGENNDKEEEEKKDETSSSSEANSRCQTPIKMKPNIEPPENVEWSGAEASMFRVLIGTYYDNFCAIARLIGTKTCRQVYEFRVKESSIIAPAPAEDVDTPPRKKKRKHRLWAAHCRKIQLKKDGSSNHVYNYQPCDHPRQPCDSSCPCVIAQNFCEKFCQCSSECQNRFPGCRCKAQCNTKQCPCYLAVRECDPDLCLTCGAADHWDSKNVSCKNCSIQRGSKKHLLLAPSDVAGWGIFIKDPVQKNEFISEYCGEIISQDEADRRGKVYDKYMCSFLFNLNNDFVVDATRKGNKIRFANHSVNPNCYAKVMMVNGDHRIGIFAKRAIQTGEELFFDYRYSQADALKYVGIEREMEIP

inhibition [6]: Active
inhibition [7]: Active
inhibition [8]: Active
inhibition [9]: Dde
half-life [17]: 3.81 h
Cmax [18]: 27100 ng/mL
half-life [19]: 4.16 h
AUC [20]: 13500 ng·h/mL
bioavailability [21]: 4.94%
IC50 [22]: 690 nM
IC50 [23]: 34 nM
Compound: CCN(c1cc(-c2ccc(OCCCCCNC(=O)C[C@@H]3N=C(c4ccc(Cl)cc4)c4c(sc(C)c4C)-n4c(C)nnc43)cc2)cc(C(=O)NCc2c(C)cc(C)[nH]c2=O)c1C)C1CCOCC1
Activity [1]: 72.9%
Activity [2]: Active
Activity [3]: Dde
Activity [4]: Dde
Activity [5]: Dde
Activity [10]: Active
Activity [11]: 63.4%
Activity [12]: Active
Activity [13]: Active
Activity [14]: Active
Activity [15]: Active
Activity [16]: Active
Activity [24]: Active
Activity [25]: Active
Activity [26]: Active
Activity [27]: Active
Activity [28]: Active
Activity [29]: Active
Activity [30]: Active
Activity [31]: Active
Activity [32]: Active
Activity [33]: 38.6%
Activity [34]: 62.3%
Activity [35]: 57.8%
Activity [36]: Non-Toxic
Activity [37]: Non-Toxic
